In PMC12033364, “Emergence of transferable daptomycin resistance in Gram-positive bacteria” (npj Antimicrobials and Resistance, 2025):

What was measured:
S. aureus RN4220 = test: DAP MIC, micro-broth dilution, plasmid-carrying strains; format: cell-based, Staphylococcus aureus; conditions: MH + 50 µg/mL CaCl2, 18 h 37 °C, three biological replicates
Experimental: (§1) Bacteria were grown in Muller-Hinton broth (MH) (Carl Roth GmbH + Co. KG, Karlsruhe, Germany) and over-night cultures supplemented with antibiotics when required. […] For transcription profiling experiments, bacteria were exposed to 128 µg/mL DAP for 30 min. All strains, except bacilli (30 °C), were incubated at 37 °C.
(§2) Recombinant plasmids (Table S1) were generated by in vitro E. coli cloning method, employing shuttle vector pCG248 as backbone and E. coli DC10B as host. After recovery from E. coli, recombinant plasmids were transformed into S. aureus or B. subtilis via electroporation.
(§3) The cultures were adjusted to 5 × 10^5 CFU/mL and transferred to a 96-well flat bottom microtiter plate (Greiner Bio-One GmbH, Frickenhausen, Germany). 100 ng/mL anhydrotetracycline (ATc) (Carl Roth GmbH + Co. KG, Karlsruhe, Germany) was added if required; ATc-containing plates were stored in the dark. Plates were incubated for 18 h at 37 °C (24 h at 30 °C for bacilli) under static conditions. Afterwards, the OD595 was measured to determine the MIC according to EUCAST guidelines.

S. aureus USA300 LAC* = test: DAP MIC, micro-broth dilution, plasmid-carrying MRSA strains; format: cell-based, Staphylococcus aureus; conditions: MH + 50 µg/mL CaCl2, 18 h 37 °C, three biological replicates
Experimental: as §1, §2, §3

B. subtilis 168 = test: DAP MIC, micro-broth dilution, plasmid-carrying strains; format: cell-based, Bacillus subtilis
Experimental: as §1, §2, §3

[1] = tested on: drcA and drcB (TS92_00079, TS92_00080) in M. sciuri TS92; test: Transcription profiling (RNA-Seq) upon DAP exposure; format: cell-based, Mammaliicoccus sciuri; conditions: M. sciuri TS92 exposed to 128 µg/mL DAP for 30 min, three biological replicates, DESeq2
Experimental: An overnight culture of M. sciuri TS92 was diluted in fresh MH to an optical density at 600 nm (OD600) of 0.05 and grown to OD600 0.5. The culture was split into 10 mL each aliquots and incubated in the absence and presence of 128 µg/mL DAP for 30 min. Subsequently, total RNA extraction was performed as described previously.
RNA was isolated from three biological replicates. RNA quality was checked using a 2100 Bioanalyzer with the RNA 6000 Nano Kit (Agilent Technologies, Santa Clara, USA). cDNA libraries suitable for sequencing were prepared from 1000 ng of total RNA after DNase I treatment (Thermo Fisher, Darmstadt, Germany). […] The number of PCR cycles was determined at 14 by qPCR and the elongation time was set to 15 s. Libraries were quantified by Qubit^TM dsDNA HS Assay Kit and Qubit^TM 3.0 Fluorometer (ThermoFisher), and quality was checked using 2100 Bioanalyzer with the High Sensitivity DNA Kit (Agilent Technologies) before pooling. Sequencing of pooled libraries, spiked with 5% PhiX control library, was performed at ~11–15 million reads per sample in single-end mode with 75 nucleotide read length on the NextSeq 500 platform (Illumina, San Diego, CA, USA). […] Afterwards, the pipeline READemption v0.4.5[59] was applied to align all reads longer than 11 nt (-l 12) to our de novo assembled M. sciuri TS92 genome using segemehl v0.2.0[60] with an accuracy cut-off of 95% (-a 95). […]

[2] = tested on: Enterococcus faecalis CVM N59689F; conditions: E. faecalis CVM N59689F, drc-carrying isolate from market swine; cited from earlier work
From the text: Table 1 Detection of the drc locus (drcRS/drcAB) in staphylococci and enterococci | column: DAP MIC (µg/mL) || Another bottleneck in clinical AMR development is that AMR genes from environmental microorganisms must gain access to pathogenic species. This requires donors and recipients to come into close physical contact, which is often challenging as pathogenic and environmental species rarely share the same ecological niche. In this respect, M. sciuri may play a crucial role in drc acquisition and spread. Due to its dual lifestyle as a soil bacterium and animal commensal, M. sciuri comes into contact with both the soil resistome and commensal bacteria associated with warm-blooded hosts, making M. sciu ...

In the case of `CCCCCCCCCC(=O)N[C@@H](Cc1c[nH]c2ccccc12)C(=O)N[C@H](CC(N)=O)C(=O)N[C@@H](CC(=O)O)C(=O)N[C@@H]1C(=O)NCC(=O)N[C@@H](CCCN)C(=O)N[C@@H](CC(=O)O)C(=O)N[C@H](C)C(=O)N[C@@H](CC(=O)O)C(=O)NCC(=O)N[C@H](CO)C(=O)N[C@@H]([C@H](C)CC(=O)O)C(=O)N[C@@H](CC(=O)c2ccccc2N)C(=O)O[C@@H]1C` [DAP, Daptomycin], the “DAP MIC” value (S. aureus RN4220; S. aureus RN4220_Pxyl/tet-drcAB + ATc (100 ng/mL, induced)) is reported as 64 µg/mL, the “DAP MIC” value (S. aureus RN4220; S. aureus RN4220_drcRS/drcAB (entire drc locus, native drcRS control, plasmid)) is reported as 64 µg/mL and the “DAP MIC” value (S. aureus RN4220; S. aureus RN4220_empty vector control) is reported as 1 µg/mL. The “DAP MIC” value (S. aureus USA300 LAC*; S. aureus USA300 LAC*_Pxyl/tet-drcAB + ATc (induced)) was 32 µg/mL, the “DAP MIC” value (S. aureus USA300 LAC*; S. aureus USA300 LAC*_drcRS/drcAB (entire drc locus on plasmid)) was 128 µg/mL and the “DAP MIC” value (S. aureus USA300 LAC*; S. aureus USA300 LAC*_empty vector control) was 1 µg/mL. For the same compound, the “DAP MIC” value (B. subtilis 168; B. subtilis 168_Pxyl/tet-drcAB + ATc (induced), MH + 50 µg/mL CaCl2, 24 h 30 °C, three biological replicates) was 16 µg/mL, the “DAP MIC” value (B. subtilis 168; B. subtilis 168_drcRS/drcAB (entire drc locus on plasmid), MH + 50 µg/mL CaCl2, 24 h 30 °C, three biological replicates) was greater than 256 µg/mL and the “DAP MIC” value (B. subtilis 168; B. subtilis 168 as worded in the text, before induction of drcAB expression) was 2 µg/mL. For the same compound, the “up-regulation of drcA and drcB transcription upon DAP exposure versus untreated control” value [1] was 128 fold change and the “DAP MIC” value [2] was greater than 16 µg/mL.
